According to publication PMC5913239, “Targeting GLP-1 receptor trafficking to improve agonist efficacy” (Nature Communications, 2018):

Assays:
INS-1 832/3 cells = assay: Insulin secretion in INS-1 832/3 beta cells; format: cell-based, rat; details: INS-1 832/3, 16 h
Protocol: Cells were pre-incubated overnight in 3 mM glucose medium.
For human islets, acute incubations were performed in KHB buffer at the indicated concentration of glucose ± agonist[28]. Overnight incubations were performed in complete RPMI plus 11 mM glucose ± 100 nM agonist. Samples were obtained for secreted and, where indicated, total insulin, and analyzed by HTRF (Cisbio). Percentage of release was calculated, and agonist-stimulated results expressed relative to 11 mM glucose alone as insulin stimulation index.

GLP-1R [1] = target: T1, GLP-1R (Homo sapiens, UniProt P43220); assay: cAMP accumulation (HTRF) in PathHunter CHO-GLP-1R cells; format: cell-based; parameters: host or cells: PathHunter CHO-K1 reporter cells (purchased cell lines); details: ± 3 μM BETP, n=3
T1 sequence (P43220 24-463): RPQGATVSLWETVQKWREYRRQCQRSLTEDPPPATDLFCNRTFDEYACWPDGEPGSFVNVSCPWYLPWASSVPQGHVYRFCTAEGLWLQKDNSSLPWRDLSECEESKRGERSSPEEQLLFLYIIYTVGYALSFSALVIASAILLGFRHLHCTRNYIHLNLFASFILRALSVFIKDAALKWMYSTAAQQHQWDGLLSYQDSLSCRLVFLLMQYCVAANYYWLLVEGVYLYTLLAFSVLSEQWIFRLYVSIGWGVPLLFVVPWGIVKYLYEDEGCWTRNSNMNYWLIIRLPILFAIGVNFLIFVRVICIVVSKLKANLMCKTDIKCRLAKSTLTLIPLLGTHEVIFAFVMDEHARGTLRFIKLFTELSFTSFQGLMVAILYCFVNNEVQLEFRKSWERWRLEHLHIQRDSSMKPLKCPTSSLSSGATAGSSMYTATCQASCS
Protocol: Cyclic AMP accumulation was determined by HTRF (cAMP Dynamic 2, Cisbio). CHO-SNAP-GLP-1R were stimulated at 37 °C in serum-free DMEM. For dose responses, a full GLP-1 curve was included to establish the assay Emax with curve fitting to a four-parameter fit.

GLP-1R [2] = target: T1, GLP-1R; assay: Agonist-induced GLP-1R internalization (cell surface receptor loss), post-stimulation Lumi4-Tb surface labeling, CHO-SNAP-GLP-1R cells; format: cell-based; details: ± 3 μM BETP, 30 min, 100 nM exendin-4, n=4
Protocol: (§1) GLP-1R internalization and recycling in CHO-SNAP-GLP-1R cells was measured by surface labeling with anti-GLP-1R antibody or the SNAP-tag probe Lumi4-Tb (Cisbio). […] Residual surface expression was determined from peptide- vs. control-treated wells.

GLP-1R [3] = target: T1, GLP-1R; assay: β-arrestin-2 recruitment, PathHunter CHO-GLP-1R cells; format: cell-based; parameters: host or cells: PathHunter CHO-K1 reporter cells (purchased cell lines); details: ± 3 μM BETP, n=3
Description: A full GLP-1 dose response was included to establish the assay Emax.

SNAP-GLP-1R [4] = target: T2, SNAP-GLP-1R (Homo sapiens, UniProt P43220); assay: GLP-1R recycling, plate reader surface labeling, CHO-SNAP-GLP-1R cells; format: cell-based
T2 sequence (P43220 24-463): as above
Protocol: as §1

SNAP-GLP-1R [5] = target: T2, SNAP-GLP-1R; assay: Competitive association kinetics (TR-FRET, competition with exendin-4-FITC), CHO-SNAP-GLP-1R cells; format: binding
Protocol: Association and dissociation rate constants were calculated using the kinetics of competitive binding algorithm in GraphPad Prism[43].

Molecule	effect on exendin-4-induced prolonged insulin secretion (INS-1 832/3 cells; ± 3 µM BETP, n=5)	effect on exendin-4 cAMP response (GLP-1R [1])	effect on exendin-4-induced internalization (GLP-1R [2])	effect on exendin-4 β-arrestin-2 recruitment response (GLP-1R [3])	effect on GLP-1R recycling after exendin-4 exposure (SNAP-GLP-1R [4]; ± 3 μM BETP, 60 min recycling, 100 nM exendin-4, n=4)	effect on exendin-4 association rate (SNAP-GLP-1R [5]; ± 10 μM BETP, n=4)	effect on exendin-4 residence time (SNAP-GLP-1R [5]; ± 10 μM BETP, n=4)	prolonged insulin secretion, comparison with licensed GLP-1R agonists (INS-1 832/3 cells; 100 nM, tested in parallel, n=6)	GLP-1R recycling (comparison in words) (SNAP-GLP-1R [4]; 100 nM, 60 min, with 10 μM exendin(9-39), n=5)	agonist residence time (comparison in words) (SNAP-GLP-1R [5]; CHO-SNAP-GLP-1R, normalized to exendin-4-FITC response per assay, n=5)
CC[S+]([O-])c1nc(-c2cccc(OCc3ccccc3)c2)cc(C(F)(F)F)n1 (stereo not shown) [BETP, 4-(3-(benzyloxy)phenyl)-2-(ethylsulfinyl)-6-(trifluoro-methyl)pyrimidine]	reduced	did not affect	minimal effect	did not affect	slowed	without changes	increased	–	–	–
Dulaglutide	–	–	–	–	–	–	–	closest to ex-phe1	modestly increased recycling	shorter than other compounds
